According to ChEMBL document CHEMBL1141569, “Synthesis and antimicrobial activity of 3-arylamino-1-chloropropan-2-ols” (Bioorg Med Chem Lett, 2008):
Converted amounts (≈) assume the structure as drawn.

How the values were obtained:
Aspergillus niger [1] = test: Antifungal activity against Aspergillus niger assessed as inhibition per disc by microbroth dilution assay; type: functional
[2] = Toxicity in human erythrocytes assessed as hemolysis upto 1.70 ug/mL; type: cell-based, Erythrocyte; conditions: read-out: Activity
Aspergillus niger [3] = test: Antifungal activity against Aspergillus niger assessed as inhibition per disc by percent spore germination inhibition method; type: functional
Aspergillus flavus [4] = test: Antifungal activity against Aspergillus flavus assessed as inhibition per disc by disc diffusion method; type: functional
Aspergillus fumigatus [5] = test: Antifungal activity against Aspergillus fumigatus assessed as inhibition per disc by disc diffusion method; type: functional
[6] = Toxicity in human erythrocytes assessed as hemolysis upto 62.5 ug/mL; type: cell-based, Erythrocyte; conditions: read-out: Activity
Aspergillus fumigatus [7] = test: Antifungal activity against Aspergillus fumigatus assessed as inhibition per disc by microbroth dilution assay; type: functional
[8] = Toxicity in human erythrocytes assessed as hemolysis upto 3.91 ug/mL; type: cell-based, Erythrocyte; conditions: read-out: Activity
Aspergillus fumigatus [9] = test: Antifungal activity against Aspergillus fumigatus assessed as inhibition per disc by percent spore germination inhibition method; type: functional
Aspergillus flavus [10] = test: Antifungal activity against Aspergillus flavus assessed as inhibition per disc by microbroth dilution assay; type: functional
Aspergillus flavus [11] = test: Antifungal activity against Aspergillus flavus assessed as inhibition per disc by percent spore germination inhibition method; type: functional
Aspergillus niger [12] = test: Antifungal activity against Aspergillus niger assessed as inhibition per disc by disc diffusion method; type: functional
Streptococcus pneumoniae = test: Antibacterial activity against Streptococcus pneumoniae by micro-broth dilution assay; type: functional
Candida albicans [13] = test: Antifungal activity against Candida albicans assessed as inhibition per disc by percent growth inhibition assay; type: functional
[14] = Toxicity in human erythrocytes assessed as hemolysis upto 250 ug/mL; type: cell-based; conditions: erythrocyte
Salmonella typhi [15] = test: Antibacterial activity against Salmonella typhi by microbroth dilution assay; type: functional, Salmonella enterica subsp. enterica serovar Typhi; conditions: Salmonella enterica
Pseudomonas aeruginosa [16] = test: Antibacterial activity against Pseudomonas aeruginosa by microbroth dilution assay; type: functional
Staphylococcus aureus = test: Antibacterial activity against Staphylococcus aureus by microbroth dilution assay; type: functional
Salmonella typhi [17] = test: Antibacterial activity against Salmonella typhi at 31.25 ug/mL; type: functional, Salmonella enterica subsp. enterica serovar Typhi; conditions: Salmonella enterica
Candida albicans [18] = test: Antifungal activity against Candida albicans at 31.25 ug/mL; type: functional
Aspergillus fumigatus [19] = test: Antifungal activity against Aspergillus fumigatus at 5.85 ug/mL; type: functional
[20] = Toxicity in human erythrocytes assessed as hemolysis upto 4000 ug/mL; type: cell-based; conditions: erythrocyte
Pseudomonas aeruginosa [21] = test: Antibacterial activity against Pseudomonas aeruginosa at 31.25 ug/mL; type: functional

Structure (SMILES)	MIC (Aspergillus niger [1])	MIC (Aspergillus niger [3])	MIC (Aspergillus flavus [4])	MIC (Aspergillus fumigatus [5])	MIC (Aspergillus fumigatus [7])	MIC (Aspergillus fumigatus [9])	MIC (Aspergillus flavus [10])	MIC (Aspergillus flavus [11])	MIC (Aspergillus niger [12])	MIC (Streptococcus pneumoniae)	MIC (Candida albicans [13])	Activity [14]	MIC (Salmonella typhi [15])	MIC (Pseudomonas aeruginosa [16])	MIC (Staphylococcus aureus)	further results
C[C@@H]1[C@H](O)[C@@H](C)/C=C/C=C/C=C/C=C/C=C/C=C/C=C/[C@H](O[C@@H]2O[C@H](C)[C@@H](O)[C@H](N)[C@@H]2O)C[C@@H]2O[C@](O)(C[C@@H](O)C[C@@H](O)[C@H](O)CC[C@@H](O)C[C@@H](O)CC(=O)O[C@H]1C)C[C@H](O)[C@H]2C(=O)O (stereo in doubt) [AMPHOTERICIN B]	1.95 µg/mL	1.95 µg/mL (≈ 2.11 µM)	0.73 µg	0.73 µg	1.95 µg/mL	1.95 µg/mL (≈ 2.11 µM)	1.95 µg/mL	1.95 µg/mL (≈ 2.11 µM)	0.73 µg							hemolysis at 1.7 ug/mL [2]: 50%; hemolysis at 62.5 ug/mL [6]: 100%; hemolysis at 3.91 ug/mL [8]: 5.52%
OC(CCl)CNc1ccc(Cl)cc1Cl (stereo unspecified)	125 µg/mL	125 µg/mL (≈ 491 µM)	46.87 µg	23.43 µg	62.5 µg/mL	62.5 µg/mL (≈ 246 µM)	125 µg/mL	62.5 µg/mL (≈ 246 µM)	93.75 µg	125 µg/mL (≈ 491 µM)	62.5 µg/mL (≈ 246 µM)	Non-toxic	31.3 µg/mL (≈ 123 µM)	62.5 µg/mL (≈ 246 µM)	500 µg/mL (≈ 1960 µM)	inhibition at 31.25 µg/mL (Salmonella typhi [17]): 90%
OC(CCl)CNc1c(Cl)cccc1Cl (stereo unspecified)	250 µg/mL	125 µg/mL (≈ 491 µM)	46.87 µg	46.87 µg	125 µg/mL	125 µg/mL (≈ 491 µM)	125 µg/mL	62.5 µg/mL (≈ 246 µM)	93.75 µg	500 µg/mL (≈ 1960 µM)	31.2 µg/mL (≈ 123 µM)	Non-toxic	500 µg/mL (≈ 1960 µM)	125 µg/mL (≈ 491 µM)	500 µg/mL (≈ 1960 µM)	inhibition at 31.25 µg/mL (Candida albicans [18]): 90%
OC(CCl)CNc1ccc(Cl)cc1 (stereo unspecified)	31.2 µg/mL	31.2 µg/mL (≈ 142 µM)	11.71 µg	5.85 µg	15.6 µg/mL	15.6 µg/mL (≈ 71 µM)	31.2 µg/mL	15.6 µg/mL (≈ 71 µM)	23.43 µg	500 µg/mL (≈ 2270 µM)	62.5 µg/mL (≈ 284 µM)	Non-toxic	62.5 µg/mL (≈ 284 µM)	125 µg/mL (≈ 568 µM)	1000 µg/mL (≈ 4540 µM)	inhibition at 5.85 µg/mL (Aspergillus fumigatus [19]): 90%; Activity [20]: Non-toxic
OC(CCl)CNc1cc(Cl)ccc1Cl (stereo unspecified)	125 µg/mL	125 µg/mL (≈ 491 µM)	93.75 µg	46.87 µg	125 µg/mL	125 µg/mL (≈ 491 µM)	125 µg/mL	62.5 µg/mL (≈ 246 µM)	93.75 µg	500 µg/mL (≈ 1960 µM)	62.5 µg/mL (≈ 246 µM)	Non-toxic	250 µg/mL (≈ 982 µM)	62.5 µg/mL (≈ 246 µM)	250 µg/mL (≈ 982 µM)	
OC(CCl)CNc1cccc(Cl)c1 (stereo unspecified)	62.5 µg/mL	62.5 µg/mL (≈ 284 µM)	46.87 µg	23.43 µg	62.5 µg/mL	62.5 µg/mL (≈ 284 µM)	62.5 µg/mL	62.5 µg/mL (≈ 284 µM)	46.87 µg	500 µg/mL (≈ 2270 µM)	125 µg/mL (≈ 568 µM)	Non-toxic	500 µg/mL (≈ 2270 µM)	250 µg/mL (≈ 1140 µM)	1000 µg/mL (≈ 4540 µM)	
OC(CCl)CNc1cc(Cl)cc(Cl)c1 (stereo unspecified)	250 µg/mL	250 µg/mL (≈ 982 µM)	46.87 µg	46.87 µg	125 µg/mL	125 µg/mL (≈ 491 µM)	125 µg/mL	125 µg/mL (≈ 491 µM)	93.75 µg	250 µg/mL (≈ 982 µM)	31.2 µg/mL (≈ 123 µM)	Non-toxic	31.3 µg/mL (≈ 123 µM)	62.5 µg/mL (≈ 246 µM)	125 µg/mL (≈ 491 µM)	inhibition at 31.25 µg/mL (Candida albicans [18]): 90%; inhibition at 31.25 µg/mL (Salmonella typhi [17]): 90%
CN(C)[C@@H]1C(O)=C(C(N)=O)C(=O)[C@@]2(O)C(O)=C3C(=O)c4c(O)cccc4[C@@](C)(O)[C@H]3C[C@@H]12 [TETRACYCLINE]										7.9 µg/mL (≈ 17.8 µM)			15.6 µg/mL (≈ 35.1 µM)	7.9 µg/mL (≈ 17.8 µM)	7.9 µg/mL (≈ 17.8 µM)	hemolysis at 62.5 ug/mL [6]: 11.7%; hemolysis at 3.91 ug/mL [8]: 4.26%
OC(CCl)CNc1ccccc1Cl (stereo unspecified)	62.5 µg/mL	62.5 µg/mL (≈ 284 µM)	23.43 µg	11.71 µg	31.2 µg/mL	31.2 µg/mL (≈ 142 µM)	63.5 µg/mL	31.2 µg/mL (≈ 142 µM)	23.43 µg	250 µg/mL (≈ 1140 µM)	250 µg/mL (≈ 1140 µM)	Non-toxic	250 µg/mL (≈ 1140 µM)	62.5 µg/mL (≈ 284 µM)	500 µg/mL (≈ 2270 µM)	inhibition at 5.85 µg/mL (Aspergillus fumigatus [19]): 90%
OC(CCl)CNc1ccc(Cl)c(Cl)c1 (stereo unspecified)	62.5 µg/mL	62.5 µg/mL (≈ 246 µM)	23.43 µg	11.71 µg	31.2 µg/mL	31.2 µg/mL (≈ 123 µM)	62.5 µg/mL	31.2 µg/mL (≈ 123 µM)	46.87 µg	125 µg/mL (≈ 491 µM)	125 µg/mL (≈ 491 µM)	Non-toxic	62.5 µg/mL (≈ 246 µM)	31.3 µg/mL (≈ 123 µM)	62.5 µg/mL (≈ 246 µM)	inhibition at 31.25 µg/mL (Pseudomonas aeruginosa [21]): 90%
OC(CCl)CNc1cccc(Cl)c1Cl (stereo unspecified)	125 µg/mL	125 µg/mL (≈ 491 µM)	46.87 µg	46.87 µg	125 µg/mL	62.5 µg/mL (≈ 246 µM)	125 µg/mL	125 µg/mL (≈ 491 µM)	93.75 µg	62.5 µg/mL (≈ 246 µM)	62.5 µg/mL (≈ 246 µM)	Non-toxic	62.5 µg/mL (≈ 246 µM)	62.5 µg/mL (≈ 246 µM)	500 µg/mL (≈ 1960 µM)	
